Data reported in article PMC10525445, “Antitrypanosomal Activity of 1,2,3-Triazole-Based Hybrids Evaluated Using In Vitro Preclinical Translational Models” (Biology, 2023).

Legend:
[1] = tested on: 3D cardiac microtissue (heart muscle cells); test: Cardiotoxic effect on 3D cardiac spheroids; type: cell-based, Swiss Webster mice; settings: 72 h, up to 500 µM, read-out: Toxicity 3D Culture (CC50)
Method: (§1) Primary heart muscle cell cultures were obtained from fetuses of female Swiss Webster mice, as previously described. After heart removal and ventricle fragmentation, tissue fragments were dissociated in a trypsin and collagenase type II (Worthington Biochemical Corporation, Lakewood, USA) dissociation solution. For two-dimensional (2D) cultures, the isolated cardiac cells were seeded at a density of 5 × 10^4 cells/well in gelatin (0.1%)-coated 96-well white culture plates. Three-dimensional (3D) cardiac spheroids were obtained after seeding isolated heart muscle cells at a density of 2.5 × 10^4 cells/well in an agarose (1%)-coated 96-well U-bottom plate, as described in [35]. Heart muscle cells cultures were cultivated in Dulbecco’s modified Eagle medium (DMEM) supplemented with 7% FBS, 2.5 mM CaCl2, 2% embryo extract, and 1 mM L-glutamin and maintained at 37 °C in a humidified atmosphere of 5% CO2. All procedures with animals were approved by the Animal Care and Use Committee at the Oswaldo Cruz Institute (license L-017/2022).
(§2) The toxic effect of the triazole series was evaluated on VERO cell monolayers. After seeding for 24 hours, VERO cells were treated for 72 h at 37 °C with the 1,2,3-triazole derivatives and Bz, the reference drug, with a range of concentration from 15.62 to 500 µM. Controls were performed with a non-toxic concentration of dimethyl sulfoxide (DMSO; ≤0.1%) used in the experimental assays. Cell viability was determined by measuring ATP level using a CellTiter Glo kit. The luminescence read was performed using a Glomax microplate reader (Promega Corporation, Madison, WI, EUA). The cytotoxicity concentration 50 (CC50), the drug concentration that reduces cell viability by 50%, was calculated using linear regression. […] Cultures were exposed for 72 h to compound concentrations up to 500 µM, following the protocol mentioned above. At least 3 independent assays were performed in duplicate.

[2] = tested on: heart muscle cells (2D culture); test: Cardiotoxic effect on 2D primary heart muscle cell culture; type: cell-based, Swiss Webster mice; settings: heart muscle cell monolayers, 72 h, up to 500 µM; read-out: Toxicity 2D Culture (CC50)
Method: as §1, §2

VERO cells = test: Cytotoxicity on VERO cell monolayers (CellTiter Glo, 72 h); type: cell-based; settings: ATP level
Method: as §2, with “VERO cells (Rio de Janeiro Cell Bank code 0245) were cultivated in RPMI 1640 medium supplemented with 10% fetal bovine serum (FBS) at 37 °C in a humidified atmosphere of 5% CO2. Confluent monolayers were dissociated with trypsin-EDTA solution (0.025%), and isolated cells were seeded on culture plates or flasks, depending on the experimental assay. The VERO cell cultures were used in cytotoxicity and phenotypic screening assays and for obtaining culture-derived trypomastigotes. The toxic” for “The toxic”

[3] = Cardiotoxic effect on 3D cardiac spheroids; type: cell-based, Swiss Webster mice; settings: Swiss Webster, mouse, 3D cardiac spheroids of primary fetal heart muscle cells, 3D cardiac microtissue, up to 500 µM, read-out: Toxicity 3D Culture (CC50)
Method: as §1, §2

[4] = Cardiotoxic effect on 2D primary heart muscle cell culture; type: cell-based, Swiss Webster mice; settings: Swiss Webster, mouse, primary fetal heart muscle cells, 2D monolayer culture, heart muscle cell monolayers, up to 500 µM, read-out: Toxicity 2D Culture (CC50)
Method: as §1, §2

[5] = Cytotoxicity on VERO cell monolayers (CellTiter Glo, 72 h); type: cell-based; settings: African green monkey, VERO cell monolayers, ATP level, read-out: Cytotoxicity VERO Cells CC50
Method: as §2, with “VERO cells (Rio de Janeiro Cell Bank code 0245) were cultivated in RPMI 1640 medium supplemented with 10% fetal bovine serum (FBS) at 37 °C in a humidified atmosphere of 5% CO2. Confluent monolayers were dissociated with trypsin-EDTA solution (0.025%), and isolated cells were seeded on culture plates or flasks, depending on the experimental assay. The VERO cell cultures were used in cytotoxicity and phenotypic screening assays and for obtaining culture-derived trypomastigotes. The toxic” for “The toxic”

Compound | CC50 [1] | CC50 [2] | CC50 (VERO cells) | CC50 at 72 h [3] | CC50 at 72 h [4] | CC50 at 72 h [5]
4-Phenyl-1-(m-tolyl)-1H-1,2,3-triazole [Triazole 1f] | > 500 µM | 111 ± 10.1 µM | 86.8 ± 2.73 µM |  |  | 
COc1ccc(-n2cc(-c3ccccc3)nn2)cc1 [Triazole 1d, 1-(4-Methoxyphenyl)-4-phenyl-1H-1,2,3-triazole] |  |  |  | > 500 µM | > 500 µM | > 500 µM
c1ccc(-c2cn(-c3ccccc3)nn2)cc1 [Triazole 1g, 1-(4-Diphenyl)-1H-1,2,3-triazole] |  |  |  | > 500 µM | > 500 µM | > 500 µM
